Experimental data as given in ChEMBL document CHEMBL1133044, “Nonpeptide GPIIB/IIIA receptor antagonists. Part 21: C-6 flexibility and amide bond orientation are important factors in determining the affinity of compounds for activated or resting platelet receptors” (Bioorg Med Chem Lett, 2000).

Tests used:
[1] = target: T1, Integrin alpha-IIb/beta-3 (Homo sapiens, UniProt P05106+P08514); experiment: Competition with [1251]L-692,884 for binding to purified alpha IIb/beta3 integrin, activated by coating onto yttrium silicate scintillation proximity assay fluomicrospheres.; format: protein-complex assay
Target sequence in this assay (P05106 27-788 limits assumed): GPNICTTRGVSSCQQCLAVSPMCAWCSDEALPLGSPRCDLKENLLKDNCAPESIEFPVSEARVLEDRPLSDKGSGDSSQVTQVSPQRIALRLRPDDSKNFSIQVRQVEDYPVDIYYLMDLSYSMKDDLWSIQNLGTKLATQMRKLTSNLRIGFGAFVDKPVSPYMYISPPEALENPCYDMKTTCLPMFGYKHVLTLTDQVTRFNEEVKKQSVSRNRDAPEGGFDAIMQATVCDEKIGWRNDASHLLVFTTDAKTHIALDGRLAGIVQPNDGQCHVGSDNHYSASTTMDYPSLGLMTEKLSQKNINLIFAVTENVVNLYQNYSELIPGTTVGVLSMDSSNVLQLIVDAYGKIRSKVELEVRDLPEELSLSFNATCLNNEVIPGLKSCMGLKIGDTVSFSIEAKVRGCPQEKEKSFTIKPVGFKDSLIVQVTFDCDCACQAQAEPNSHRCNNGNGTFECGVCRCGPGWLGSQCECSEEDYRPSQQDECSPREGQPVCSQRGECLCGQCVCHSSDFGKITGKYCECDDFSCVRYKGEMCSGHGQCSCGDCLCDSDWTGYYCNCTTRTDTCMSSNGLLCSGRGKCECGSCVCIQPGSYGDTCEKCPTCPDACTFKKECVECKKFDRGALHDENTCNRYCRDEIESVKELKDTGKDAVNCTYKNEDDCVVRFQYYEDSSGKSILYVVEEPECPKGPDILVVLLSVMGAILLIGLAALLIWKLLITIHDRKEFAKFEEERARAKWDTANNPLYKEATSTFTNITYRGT
Target sequence in this assay (P08514 32-887 limits assumed): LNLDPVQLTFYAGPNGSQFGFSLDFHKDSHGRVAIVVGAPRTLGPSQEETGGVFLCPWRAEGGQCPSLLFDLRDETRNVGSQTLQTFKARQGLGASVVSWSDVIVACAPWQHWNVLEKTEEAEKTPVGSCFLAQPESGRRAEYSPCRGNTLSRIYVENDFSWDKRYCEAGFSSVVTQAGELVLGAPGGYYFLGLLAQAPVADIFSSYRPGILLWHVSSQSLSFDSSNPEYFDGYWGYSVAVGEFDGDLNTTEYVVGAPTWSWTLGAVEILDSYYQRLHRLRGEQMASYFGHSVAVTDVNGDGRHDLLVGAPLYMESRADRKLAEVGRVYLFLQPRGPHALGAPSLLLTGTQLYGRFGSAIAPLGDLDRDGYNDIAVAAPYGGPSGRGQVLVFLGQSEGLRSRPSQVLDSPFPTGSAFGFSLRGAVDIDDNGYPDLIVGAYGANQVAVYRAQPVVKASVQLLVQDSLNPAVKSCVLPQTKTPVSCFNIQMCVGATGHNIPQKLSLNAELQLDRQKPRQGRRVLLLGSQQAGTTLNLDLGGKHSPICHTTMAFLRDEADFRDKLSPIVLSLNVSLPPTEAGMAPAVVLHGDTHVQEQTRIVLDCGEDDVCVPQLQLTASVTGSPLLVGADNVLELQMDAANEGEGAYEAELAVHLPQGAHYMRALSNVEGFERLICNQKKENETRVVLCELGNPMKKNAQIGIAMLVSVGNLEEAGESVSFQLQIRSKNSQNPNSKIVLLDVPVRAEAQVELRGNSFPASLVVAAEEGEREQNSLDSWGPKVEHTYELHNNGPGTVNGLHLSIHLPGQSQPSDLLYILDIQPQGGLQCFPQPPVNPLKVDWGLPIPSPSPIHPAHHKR
Target sequence in this assay (P08514 891-1039 limits assumed): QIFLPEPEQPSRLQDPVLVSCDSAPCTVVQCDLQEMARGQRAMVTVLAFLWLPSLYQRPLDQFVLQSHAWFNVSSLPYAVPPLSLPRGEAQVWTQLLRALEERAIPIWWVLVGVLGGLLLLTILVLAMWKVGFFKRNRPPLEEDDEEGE

[2] = target: T1, Integrin alpha-IIb/beta-3; experiment: Binding affinity to resting form of alpha IIb/beta3 integrin by flow cytometry using fluorescein ligand L-726,745 displacement from human platelets.
Target sequence in this assay (P05106 27-788 limits assumed): as the sequence (P05106 27-788 limits assumed) above
Target sequence in this assay (P08514 32-887 limits assumed): as the sequence (P08514 32-887 limits assumed) above
Target sequence in this assay (P08514 891-1039 limits assumed): as the sequence (P08514 891-1039 limits assumed) above

[3] = target: T1, Integrin alpha-IIb/beta-3; experiment: Selectivity as determined by the ratio of KDs, resting receptor over activated receptor; format: protein-complex assay
[4] = Inhibition of aggregation of human gel-filtered platelets measured by light transmittance method at 37 degrees C.

Structure (SMILES) | Kd [1] [nM] | Kd [2] [nM] | Selectivity [3] | IC50 [4] [nM]
C#C[C@H](CC(=O)O)NC(=O)CN1CCc2ccc(N3CCNCC3)cc2C1=O | 0.56 | 50 | 89 | –
C#C[C@H](CC(=O)O)NC(=O)c1ccc2c(c1)C(=O)N(CCc1ccnc(N)c1)C2 | 2.2 | 84 | 38 | –
C#C[C@H](CC(=O)O)NC(=O)C[C@H]1CCCN(CCc2ccnc(N)c2)C1=O | 0.26 | 60 | 230 | –
O=C(NC[C@H](NS(=O)(=O)c1ccccc1)C(=O)O)c1ccc(OCCC2CCNCC2)cc1 | 0.16 | 2.4 | 15 | –
O=C(NC[C@H](NS(=O)(=O)c1ccccc1)C(=O)O)c1ccc2c(c1)C(=O)N(CCC1CCNCC1)C2 | 0.25 | 3.1 | 12 | –
O=C(O)CCNC(=O)CN1CCc2ccc(N3CCNCC3)cc2C1=O | 9.7 | – | – | –
O=C(O)C[C@@H](CO)NC(=O)CN1CCc2ccc(N3CCNCC3)cc2C1=O | 15 | > 1000 | > 67 | –
O=C(O)C[C@H](NC(=O)CN1CCc2ccc(N3CCNCC3)cc2C1=O)c1cccnc1 | 0.25 | 3.4 | 14 | –
C#CC(CC(=O)O)NC(=O)CN(C(=O)c1cccc(C2CCNCC2)c1)C1CC1 (stereo unspecified) | 0.85 | 120 | 141 | –
O=C(O)CCNC(=O)c1ccc2c(c1)C(=O)N(CCC1CCNCC1)C2 | 13 | 120 | 9 | 27
Cc1ccc(S(=O)(=O)N[C@@H](CNC(=O)c2cc3n(n2)CCCN(CCC2CCNCC2)C3=O)C(=O)O)cc1 | 0.08 | – | 18 | –
O=C(CN1CCc2ccc(N3CCNCC3)cc2C1=O)NC[C@H](NS(=O)(=O)c1ccccc1)C(=O)O | 6.7 | 13 | 1.9 | –
O=C(NC[C@H](NS(=O)(=O)c1ccccc1)C(=O)O)c1cc2cc(OCCC3CCNCC3)ccc2[nH]1 | 0.056 | 1.3 | 24 | –
O=C(NC[C@H](NS(=O)(=O)c1ccccc1)C(=O)O)c1cc2cc(CCC3CCNCC3)sc2s1 | 0.09 | 2.1 | 23 | 8
C#C[C@H](CC(=O)O)NC(=O)CN1CCC[C@@H](CCc2ccnc(N)c2)C1=O | 0.78 | 340 | 435 | –

Further lines, results first:

Kd [1] [nM] | Kd [2] [nM] | Selectivity [3] | IC50 [4] [nM] | Structure (SMILES)
12 | 2300 | 192 | – | C[C@@H](/C=C/CN1CCC[C@@H](CCC2CCNCC2)C1=O)CC(=O)O
21 | 47 | 2 | – | O=C(O)C[C@@H](CO)NC(=O)c1ccc2c(c1)C(=O)N(CCC1CCNCC1)C2
0.3 | 11 | 37 | – | O=C(O)C[C@H](NC(=O)C[C@H]1CCCN(CCC2CCNCC2)C1=O)c1cccnc1
9 | 3100 | 344 | – | C#CC(CCCN1CCC[C@@H](CCC2CCNCC2)C1=O)CC(=O)O (stereo partly specified)
0.86 | 210 | 244 | – | C#C[C@H](CC(=O)O)NC(=O)CN1CCC[C@@H](CCC2CCNCC2)C1=O
64 | 49 | 0.8 | – | CC(CC(=O)O)NC(=O)c1ccc2c(c1)C(=O)N(CCC1CCNCC1)C2 (stereo unspecified)
– | 640 | 140 | – | C[C@H](CC(=O)O)NC(=O)CN1CCC[C@@H](CCC2CCNCC2)C1=O
0.38 | 84 | 221 | – | O=C(O)C[C@H](NC(=O)CN1CCC[C@@H](CCC2CCNCC2)C1=O)c1cccnc1
46 | – | 14 | 470 | O=C(O)CCNC(=O)c1cc2n(n1)CCCN(CCC1CCNCC1)C2=O
0.34 | 6.1 | 18 | – | C#C[C@H](CC(=O)O)NC(=O)C[C@H]1CCCN(CCC2CCNCC2)C1=O
0.78 | 15 | 19 | – | O=C(CN1CCC[C@@H](CCC2CCNCC2)C1=O)NC[C@H](NS(=O)(=O)c1ccccc1)C(=O)O
